Entries after “also recorded” stand apart in the source; their conditions may differ.
Experiments:
MIF = biological target: T1, MIF (Homo sapiens, UniProt P14174); experiment: MIF tautomerase activity assay (PP substrate, UV absorbance at 300 nm); assay type: biochemical
T1 construct: made in house; host or cells: Escherichia coli BL21, pET-20b(p) plasmid
T1 sequence (P14174 2-115 limits assumed): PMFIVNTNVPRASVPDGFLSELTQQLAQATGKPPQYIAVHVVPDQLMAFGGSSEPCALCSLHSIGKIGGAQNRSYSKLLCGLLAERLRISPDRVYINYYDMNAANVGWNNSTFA
Description: Recombinant human MIF with a C-terminal His-tag was expressed and purified following methods published previously.[47] The inhibitory potency for MIF tautomerase activity of the 1-phenyl-1H-1,2,3-triazole-4-carboxamides was measured after pre-incubation with MIF. The MIF-catalyzed PP tautomerization was measured by the corresponding change in UV absorbance over the first 3 min of the reaction.[48] Initial screening of the inhibitory potency was performed at 10 μM inhibitor concentration.
Inhibition of the tautomerase activity and kinetics of MIF was measured using […] (PP) as a substrate. A stock solution was prepared by mixing PP in 50 mM ammonium acetate buffer and adjusted to pH 6.0 using 1.0 M NaOH to provide a concentration of 20 mM. This solution was incubated overnight at 37 °C to allow equilibration of the keto and enol forms and then stored at 4 °C. For the assay, MIF stock solution (10 μL, 70 μM) was diluted in 20 mL of the boric acid buffer (435 mM H3BO3, 1 mM EDTA, pH 6.2) to provide 35 nM solution. The enzyme activity was determined by premixing 192 μL of the MIF dilution with 8 μL of the inhibitors dissolved in DMSO (1 mM). This mixture was preincubated for 10 min. Next, 50 μL of the mixture was mixed with 50 μL of 2 mM PP solution in ammonium acetate buffer. Subsequently, MIF tautomerase activity was monitored by the formation of the borate–enol complex, which was measured by the increase in UV absorbance at 300 nm. The increase in UV absorbance was measured over the first 10 min of incubation using a BioTek Synergy H1 Hybrid plate reader. MIF tautomerase activity in the presence of blank DMSO was set to 100% enzyme activity. […] Data from the first 3 min were used to calculate the initial velocities. All of the graphs were prepared in GraphPad Prism.
For the IC50 measurements, 1 mM solutions of the compounds were double-diluted 10 times in DMSO and subsequently, the MIF tautomerase activity was determined by premixing 190 μL of the MIF dilution with 10 μL of the inhibitors. This mixture was preincubated for 10 min and mixed with the 2 mM PP solution as described above.

HeLa cells = experiment: Immunofluorescence staining and confocal microscopy (MIF and AIF nuclear translocation); assay type: cell-based
Description: Next, we investigated the mechanism by which 6y protects genome DNA. Considering that […] is a crucial step in parthanatos, we tested if 6y interferes with MIF/AIF binding in vitro. […] Under control conditions, MIF and AIF are mainly located in the cytosol. Upon MNNG treatment, both MIF and AIF translocated to the nucleus.
Immunofluorescence staining was applied to cells to determine the nuclear trans-localization of AIF and MIF. HeLa cells were seeded onto a coverslip and treated with or without 100 μM 6y for 3 h. Then, parthanatos was induced by MNNG (50 μM, 15 min). The same amount of medium in the absence of MNNG was added for the negative control group. After overnight incubation, the cells were fixed with methanol and blocked with 2% BSA in 0.1% PBS-T. AIF and MIF were detected by AIF Monoclonal Antibody (7F7AB10, Invitrogen) and MIF Polyclonal Antibody (PA5-27343, Invitrogen), respectively. Then, AIF and MIF primary antibodies were visualized by Alexa Fluor 647 conjugated anti-Mouse IgG (Invitrogen) and Alexa Fluor 488 conjugated anti-rabbit IgG (Cell Signaling Technology, Leiden, the Netherlands), respectively. After washing, coverslips were mounted onto objective slides with an anti-fading mounting medium with NucBlue stain (Invitrogen). The pictures were acquired using a Leica SP8 confocal laser scanning microscope and analyzed by ImageJ.

MIF/ssDNA binding = biological target: T2, MIF/ssDNA binding (Homo sapiens, UniProt P14174); experiment: MIF/ssDNA binding assay (ZP307-labeled MIF, PA20-Q1 quenching); conditions: labeled MIF 1 μM, PA20-Q1 1 μM; 6y up to 100 μM
T2 construct: made in house; host or cells: Escherichia coli BL21
T2 sequence (P14174 2-115 limits assumed): T1 sequence (P14174 2-115 limits assumed)
Source text: Although in our hands the nuclease activity could not unambiguously be assigned to MIF (due to the possibility of bacterial contamination), there is still a possibility that MIF binds to single-stranded DNA (ssDNA). Furthermore, the direct interaction between MIF and ssDNA was investigated. We developed a MIF/ssDNA binding assay to detect and quantify the binding of MIF to ssDNA (Figure 6f). To establish this assay, we employed a MIF probe ZP307 (Figure 1c) that binds covalently to the N-terminal proline of MIF. This probe enables the fluorescent labeling of MIF.[38] The oligonucleotide Poly A was earlier described as a MIF nuclease substrate, lacking a secondary structure.[11] […] This enabled using the BHQ1-labeled poly A oligonucleotide (PA20-Q1) as an energy acceptor to quench fluorescence emission by labeling MIF once a MIF/ssDNA complex formed (Figure 6f). […]
Five equivalents of probe ZP307 were mixed with recombinant MIF protein for MIF labeling and incubated overnight at 4 °C. […] The fluorescence (Ex488/Em520) was determined immediately using a BioTek Synergy H1 Hybrid plate reader. The wells in the absence of PA20-Q1 were considered a positive control (100% of fluorescence signal), whereas the wells without inhibitors were considered a negative control (0% of fluorescence signal).

In the case of `O=C(Nc1ccccc1)c1ccc(-n2cc(C(=O)NCc3cccs3)nn2)cc1` [Compound 6y, 1-(4-(Phenylcarbamoyl)phenyl)-N-(thiophen-2-ylmethyl)-1H-1,2,3-triazole-4-carboxamide], the remaining activity at 10 µM (MIF; 10 μM inhibitor, activity without inhibitor set to 100%, mean, n = 3) is reported as 12%, the IC50 (MIF; PP as substrate, 10 min preincubation, read-out: IC50, inhibition of MIF tautomerase activity) is reported as 1700 ± 100 nM and the “AIF nuclear translocation upon MNNG stimulation” value (HeLa cells; 100 μM 6y, MNNG 50 μM 15 min) is reported as “uninfluenced”. For the same compound, the “MIF nuclear translocation upon MNNG stimulation” value (HeLa cells; 100 μM 6y, MNNG 50 μM 15 min) was “blocks MIF nuclear translocation”, the “MIF localization under control conditions” value (HeLa cells; without MNNG) was “did not affect MIF localization” and the MIF/PA20-Q1 binding (MIF/ssDNA binding) was “unable to block MIF/PA20-Q1 binding; also recorded: could not replace the oligonucleotide”.

Source: article PMC10350922, “Allosteric Inhibitors of Macrophage Migration Inhibitory Factor (MIF) Interfere with Apoptosis-Inducing Factor (AIF) Co-Localization to Prevent Parthanatos” (Journal of Medicinal Chemistry, 2023)
